Laboratory results from EPA's ToxValDB 9.5 (doi:10.2903/j.efsa.2014.3801).
Values joined by “and” are separate entries in the source; they are usually repeats but may differ in a detail not shown here. Identical values can stand only once.

How the values were obtained:
[1] = tested on: Daphnia magna; details: chronic/long-term; duration: 21 days
[2] = tested on: Oncorhynchus mykiss; details: for LC50: acute, duration: 96 hours, mortality; for NOEC: chronic/long-term
[3] = tested on: Rattus norvegicus; details: for LD50: acute; for NOAEL: reproduction developmental
[4] = tested on: Tagia sp.; details: for LC50: acute, mortality
[5] = tested on: Anas platyrhynchos; details: reproductive
[6] = tested on: Apis mellifera; details: acute, mortality
[7] = tested on: Colinus virginianus; details: acute, oral
[8] = tested on: Folsomia candida; details: chronic/long-term
[9] = tested on: Typhlodromus pyri; assay: LR50; higher = less toxic; details: acute; duration: 14 days; mortality

Row | Structure (SMILES) | NOEC [1] | LC50 [2] | NOEC ([2]; duration: 21 days) | NOEC ([2]; duration: 69 days, other) | LD50 ([3]; F) | LC50 [4] | NOEC ([4]; chronic/long-term) | NOAEL [5] | LD50 ([6]; dermal) | LD50 ([6]; oral, unspecified) | LD50 [7] | LC50 ([7]; diet) | NOEC [8] | LD50 ([3]; oral, mortality) | NOAEL [3] | NOAEL ([3]; body weight) | NOAEL ([3]; organ weight) | LR50 [9]
1 | O=c1cc(Cl)[nH]nc1-c1ccccc1 [Pyridafol] | 5 mg/L | > 16.2 µg/mL | > 17 mg/L | 0.1 mg/L | 1420 mg/kg | 348 mg/kg | 3.25 mg/kg |  |  |  |  |  |  |  |  |  |  | 
2 | CCCCCCCCSC(=O)Oc1cc(Cl)nnc1-c1ccccc1 [Pyridate] |  | > 1.01 µg/mL and 1.19 µg/mL |  |  |  | 400 mg/kg |  | 100 mg/kg | > 100 µg/piece | > 110 µg/piece | 1270 mg/kg | > 1250 mg/kg | 112 mg/kg | > 2000 mg/kg | 18.8 mg/kg-day | 165 mg/kg-day | 3.6 mg/kg-day | > 1360 g/ha
